# From patent publication US11503827B2, “Stabilized chemical composition” (priority 2010, dated 2022)
# Assay: Dissolution of active ingredient in liquid epoxy resin mixture, by inspection
# Type: physicochemical
# Details: 1.0-1.5 g AI in 8 g 635 Thin Epoxy Resin and 4 g 556 2:1 Epoxy Hardener
# Experimental: Nine different individual resin mixtures were prepared by mixing together 8 g 635 Thin Epoxy Resin, 4 g 556 2:1 Epoxy Hardener and between 1.0 and 1.5 g of the following finely milled active ingredients: atrazine, azoxystrobin, bicylopyrone, cyproconazole, difenoconazole, mesotrione, prodiamine, thiabendazole, thiamethoxam. […] The samples were placed on a platform shaker overnight at room temperature and then examined by light microscopy. In every case the presence of a dispersion of epoxy resin particles of diameter approximately 100 microns was confirmed. Crystals of the active ingredient were visible inside the epoxy particles under polarized light, except that in the cases of bicyclopyrone and mesotrione individual crystals were not visible as these active ingredients had dissolved in the epoxy resin—in these cases the entire epoxy resin particle was slightly birefringent indicating the presence of crystal domains within the matrix.
row,SMILES,dissolution of active ingredient in the liquid resin
1,CC(C1CC1)C(O)(Cn1cncn1)c1ccc(Cl)cc1 (stereo not drawn) [cyproconazole],most of the cyproconazole was dissolved
2,CS(=O)(=O)c1ccc(C(=O)C2C(=O)CCCC2=O)c([N+](=O)[O-])c1 [mesotrione],fully dissolved
3,COCCOCc1nc(C(F)(F)F)ccc1C(=O)C1=C(O)C2CCC(C2)C1=O (stereo not drawn) [bicylopyrone],fully dissolved
